This is an account of results in patent US20050239856A1, “Method for prophylaxis and treatment of diabetic complications with 4{alpha-hydroxy-2-methyl-5-(1-imidazolyl)benzyl}-3,5-dimethylbenzoic acid and derivatives” (priority 1995, published 2005).

Assay [1] relates to tail nerve of streptozotocin diabetic Sprague-Dawley rats. Put plainly: Tail nerve conduction velocity in streptozotocin-induced diabetic rats (Experimental Example 1). The format is in vivo, rat. To be noted: STZ diabetic rats; for tail nerve conduction velocity 7 wks after administration / tail nerve conduction velocity 5 wks after administration / tail nerve conduction velocity 4 wks after administration: mean ± standard error; for effect on tail nerve conduction velocity decreased by diabetes (in words): dose-dependent, oral once a day. Here is the method: (§1) Diabetes was induced by intravenous administration of streptozotocin (65 mg/kg) to 6-week-old male Sprague-Dawley rats. Starting from 2-4 weeks after the onset of diabetes, a 0.5% hydroxypropylmethylcellulose suspension containing the compound of the present invention was orally administered once a day. At 4-7 weeks from the administration, tail nerve conduction velocity was measured with an induction potential test device (Neuropack 2, manufactured by Nihon Kohden) according to a modification of the method of Miyoshi (Fukuoka Medical Journal, vol. 62, pp. 588-603 (1971)). To be specific, subcutaneous temperature at the tail was maintained at 37° C. and the tail nerve was percutaneously stimulated electrically at 2 stimulation points (interval 6 cm). The distance between stimulation points was divided by the difference between latencies in electromyogram induced to give nerve conduction velocity. As to the test group in Table 1, blood glucose was measured at 6 weeks after administration. At 7 weeks after administration, urinary excretion of TXB2, which is a stable metabolite of TXA2, was measured.

Assay [2] is described as follows: Blood glucose in streptozotocin-induced diabetic rats (Experimental Example 1). The format is in vivo, rat. To be noted: STZ diabetic rats; for blood glucose: 6 weeks after administration, mean ± standard error. As for the experimental part:
as §1

Assay [3] relates to TXA2 biosynthesis (urinary TXB2). In words: Urinary excretion of TXB2, stable metabolite of TXA2, in streptozotocin-induced diabetic rats (Experimental Example 1). The format is in vivo, rat. To be noted: STZ diabetic rats; for urinary TXB2 excretion: 7 weeks after administration, mean ± standard error. As for the experimental part: as §1
Assay [4] concerns tail nerve of streptozotocin diabetic Sprague-Dawley rats. Put plainly: Tail nerve conduction velocity in rats, administration from 16 weeks after onset of streptozotocin diabetes (Experimental Example 3). It counts as in vivo, rat. To be noted: for tail nerve conduction velocity 5 wks after administration: started 16 weeks after onset of STZ diabetes; for tail nerve conduction velocity 5 wks after administration / tail nerve conduction velocity Before administration: mean ± standard error; for tail nerve conduction velocity Before administration: 16 weeks after onset of STZ diabetes. Here is the method:
Diabetes was induced by intravenous administration of streptozotocin (65 mg/kg) to 6-week-old male Sprague-Dawley rats. Starting from 16 weeks after the onset of diabetes, a 0.5% hydroxypropylmethylcellulose suspension containing compound A-1 was orally administered once a day. At 5 weeks from the administration, tail nerve conduction velocity was measured with arm induction potential test device (Neuropack 2, manufactured by Nihon Kohden) according to a modification of the method of Miyoshi (Fukuoka Medical Journal, vol. 62, pp. 588-603 (1971)). To be specific, subcutaneous temperature at the tail was maintained at 37° C. and the tail nerve was percutaneously stimulated electrically at 2 stimulation points (interval 6 cm). The distance between the stimulation points was divided by the difference between latencies in induced electromyogram to give nerve conduction velocity.

Assay [5] relates to kidney glomerulus of streptozotocin diabetic Sprague-Dawley rats. In words: Degree of glomerular disorder in streptozotocin-induced diabetic rats (Experimental Example 4). The format is in vivo, rat. To be noted: STZ diabetic rats; for glomerular disorder score: total score of 50 glomeruli (0-4 each), mean ± standard error. As for the experimental part:
Diabetes was induced by intravenous administration of streptozotocin (65 mg/kg) to 5-week-old male Sprague-Dawley rats. Starting from 9 weeks after the onset of diabetes, a 0.5% hydroxypropylmethylcellulose suspension containing compound A-1 was orally administered once a day. At 9 weeks from the administration, kidney was removed to determine the degree of glomerular disorder and fixed in a 10% neutral-buffered formalin solution. Tissue sections were stained with hematoxylin/eosin. Glomerulus was evaluated according to the degree of obstruction in 5 stages (0: no obstruction, 1: up to 25% obstruction, 2: up to 50% obstruction, 3: up to 75% obstruction, 4: up to 100% obstruction). Fifty glomeruli were evaluated per sample and the total score was used as an index of the degree of glomerular disorder. This operation was done under a single blind condition.

The test system of a further assay is biosynthesis of TXA2. Put plainly: Biosynthesis of TXA2 in rats with diabetes (sodium ozagrel). The format is in vivo, rat.
The subject of assay [6] is tail nerve of rats with diabetes. Put plainly: Tail nerve conduction velocity in rats with diabetes (sodium ozagrel). It counts as in vivo, rat.
Assay [7] has as its system sciatic nerve of spontaneously diabetic mice (db/db). In words: Sciatic nerve conduction velocity in spontaneously diabetic mice (db/db) (Experimental Example 2). The format is in vivo, mouse. The note with it: for sciatic nerve conduction velocity 4 wks after administration / sciatic nerve conduction velocity 5 wks after administration: db/db mice, mean ± standard error; for effect on sciatic nerve conduction velocity (in words): spontaneous diabetic mice, oral once a day. Here is the method: A 0.5% hydroxypropylmethylcellulose suspension containing the compound of the present invention was orally administered to 9-week-old male spontaneously diabetic mice (db/db) once a day. At 4-5 weeks from the administration, sciatic nerve conduction velocity was measured with an induction potential test device (Neuropack 2, manufactured by Nihon Kohden) according to a modification of the method of Yasuda (Diabetes, 38, p. 832-838 (1989)). To be specific, rectal temperature was maintained at 37° C. and two points of sciatic notch and ankle were percutaneously stimulated electrically. The distance between the stimulation points was divided by the difference between latencies in induced electromyogram to give nerve conduction velocity.

Each structure is given as a SMILES string.

For `Cc1ccc(-n2ccnc2)cc1C(O)c1c(C)cc(C(=O)[O-])cc1C.O.O.[Na+]` (stereo not drawn) [Compound A-1, sodium 4-[α-hydroxy-2-methyl-5-(1-imidazolyl)benzyl]-3,5-dimethylbenzoate dihydrate], the “tail nerve conduction velocity 7 wks after administration” value worked out at 42.0 ± 0.5 m/sec in assay [1] (0.03 mg/kg/day oral once a day), 43.4 ± 0.4 m/sec in assay [1] (0.1 mg/kg/day oral once a day), 43.7 ± 0.3 m/sec in assay [1] (0.3 mg/kg/day oral once a day) and 44.8 ± 0.4 m/sec in assay [1] (1.0 mg/kg/day oral once a day). The “effect on tail nerve conduction velocity decreased by diabetes (in words)” value in assay [1] is listed as “increased tail nerve conduction velocity”. For the same compound, the blood glucose in assay [2] (0.03 mg/kg/day oral once a day) was found to be 718.3 ± 50.7 mg/dL; in assay [2] (0.1 mg/kg/day oral once a day), 772.1 ± 32.4 mg/dL; in assay [2] (0.3 mg/kg/day oral once a day) it was 791.9 ± 65.5 mg/dL; in assay [2] (1.0 mg/kg/day oral once a day), 718.4 ± 64.1 mg/dL. Besides, the “effect on blood glucose (in words)” value in assay [2] (0.03-1.0 mg/kg/day) is listed as “without affecting the blood glucose”. Moreover, the “urinary TXB2 excretion” value in assay [3] (0.03 mg/kg/day oral once a day) is given as 10.6 ± 1.4 ng/day/100 g body weight; in assay [3] (0.1 mg/kg/day oral once a day), 6.9 ± 0.8 ng/day/100 g body weight; in assay [3] (0.3 mg/kg/day oral once a day), 5.1 ± 0.5 ng/day/100 g body weight; in assay [3] (1.0 mg/kg/day oral once a day), 3.4 ± 0.3 ng/day/100 g body weight. In addition, the “effect on urinary TXB2 excretion increased by diabetes (in words)” value in assay [3] (dose-dependent, 0.03-1.0 mg/kg/day) is on record as “decreased urinary TXB2 excretion”. The figures for the “tail nerve conduction velocity 5 wks after administration” value in assay [4] (0.3 mg/kg/day oral once a day), in assay [4] (1 mg/kg/day oral once a day) and in assay [4] (3 mg/kg/day oral once a day) were 48.3 ± 0.6 m/sec, 49.4 ± 0.4 m/sec and 50.2 ± 0.5 m/sec, respectively. Further, in assay [4] (administration from 16 weeks after onset of diabetes, dose-dependent), the “effect on tail nerve conduction velocity lowered by the progression of diabetes (in words)” value is reported as “increased tail nerve conduction velocity”. Further, the “tail nerve conduction velocity Before administration” value in assay [4] (baseline of the 0.3 mg/kg/day group) is given as 46.2 ± 0.5 m/sec; in assay [4] (baseline of the 1 mg/kg/day group), 46.1 ± 0.4 m/sec; in assay [4] (baseline of the 3 mg/kg/day group), 46.0 ± 0.3 m/sec. The glomerular disorder score worked out at 90.8 ± 10.0 in assay [5] (0.3 mg/kg/day oral once a day for 9 weeks), 65.7 ± 12.0 in assay [5] (1 mg/kg/day oral once a day for 9 weeks) and 55.4 ± 9.2 in assay [5] (10 mg/kg/day oral once a day for 9 weeks). For the same compound, the “effect on glomerular disorder due to diabetes (in words)” value in assay [5] (dose-dependent) is recorded as “suppressed glomerular disorder”.

For the compound `O=C([O-])/C=C/c1ccc(Cn2ccnc2)cc1.[Na+]` [sodium ozagrel, sodium (E)-p-(imidazol-1-ylmethyl)cinnamate], the “effect on promotion of biosynthesis of TXA2 (in words)” value with biosynthesis of TXA2 is “suppresses promotion of biosynthesis of TXA2”. Besides, the “effect on decreased tail nerve conduction velocity (in words)” value in assay [6] is on record as “does not improve decreased tail nerve conduction velocity”.

For the compound `Cc1ccc(-n2ccnc2)cc1[C@H](O)c1c(C)cc(C(=O)[O-])cc1C.O.[Na+]` [Compound A-2, sodium (S)-(−)-4[α-hydroxy-2-methyl-5-(1-imidazolyl)benzyl]-3,5-dimethylbenzoate 2/3 hydrate], the “tail nerve conduction velocity 5 wks after administration” value came out at 40.7 ± 0.5 m/sec in assay [1] (0.03 mg/kg/day oral once a day), 42.6 ± 0.4 m/sec in assay [1] (0.1 mg/kg/day oral once a day), 43.0 ± 0.3 m/sec in assay [1] (0.3 mg/kg/day oral once a day) and 42.6 ± 0.5 m/sec in assay [1] (1 mg/kg/day oral once a day). The “effect on tail nerve conduction velocity decreased by diabetes (in words)” value in assay [1] is on record as “suppressed decrease in tail nerve conduction velocity”. Moreover, the “sciatic nerve conduction velocity 4 wks after administration” value in assay [7] (0.05 mg/kg/day oral once a day) is 46.6 ± 1.5 m/sec; in assay [7] (0.5 mg/kg/day oral once a day) it was 51.9 ± 1.2 m/sec; in assay [7] (5 mg/kg/day oral once a day), 51.7 ± 1.4 m/sec. Also, the “effect on sciatic nerve conduction velocity (in words)” value in assay [7] is “increased sciatic nerve conduction velocity”.

Regarding `Cc1ccc(-n2ccnc2)cc1[C@H](O)c1c(C)cc(C(=O)O)cc1C` [Compound A-4, (S)-(−)-4-[α-hydroxy-2-methyl-5-(1-imidazolyl)benzyl]-3,5-dimethylbenzoic acid], the “tail nerve conduction velocity 4 wks after administration” value is 40.9 ± 0.5 m/sec in assay [1] (0.3 mg/kg/day oral once a day), 41.3 ± 0.4 m/sec in assay [1] (1 mg/kg/day oral once a day) and 41.7 ± 0.5 m/sec in assay [1] (3 mg/kg/day oral once a day). Further, the “effect on tail nerve conduction velocity decreased by diabetes (in words)” value in assay [1] is on record as “suppressed decrease in tail nerve conduction velocity”. Besides, the “sciatic nerve conduction velocity 5 wks after administration” value is given as 45.2 ± 1.2 m/sec in assay [7] (0.3 mg/kg/day oral once a day), 45.9 ± 0.7 m/sec in assay [7] (1 mg/kg/day oral once a day) and 45.3 ± 0.8 m/sec in assay [7] (3 mg/kg/day oral once a day). The “effect on sciatic nerve conduction velocity (in words)” value in assay [7] was “increased sciatic nerve conduction velocity”.
